The test system of data set [1] is A549-Luci cells. The data set is described as follows: Mouse model of metastatic lung tumors, small animal in vivo imaging. The arrangement: species or system nude mice. To be noted: 200 mg/kg tail vein, compared with the control group. Here is the method:
To construct a mouse model of metastatic lung tumors, 3×10^6 A549-Luci cells
were injected into the tail vein of nude mice, followed by injection of targeting peptide (CiP; 200 mg/kg) through the tail vein. Control mice were injected with PBS, 4 mg/kg adriamycin (Dox), and a control peptide ([…], targeting peptide, TP) at the same concentration as the CiP peptide; this experiment investigated whether CiP targeting peptide-induced calcification of A549 cells could inhibit lung cancer growth and metastasis. Tumorigenesis was monitored using a small animal in vivo imaging system.
The above experiments were repeated using the E6[…], E10[…], E16[…], and E30[…] peptides.

Data set [2] deals with Beas-2b human lung epithelial cells. Briefly: CCK8 assay, normal lung epithelial cells. It is filed as cell-based. The arrangement: dose or concentration left out as unconfirmed. To be noted: 48 hours. For orientation: Tetrazolium dyes change colour on reduction, which living cells bring about.
In another data set the test system is lung epithelial cells. Briefly: Electron microscopy / EDX elemental scan of cell surface calcification, lung epithelial cells. Format: cell-based, human. An excerpt: (§1) Subsequently, they were subjected to electron microscopy to detect calcification on the cell surface.
Data set [3] has as its system A549 human non-small cell lung cancer cells. The data set is described as follows: Electron microscopy / EDX elemental scan of cell surface calcification, lung cancer cells. It is filed as cell-based. To be noted: 1 mg/mL, 48 hours, Ca2+ up to 2.75 mM, phosphate up to 1.61 mM.
Source text: as §1

The next data set has as its system pulmonary nodules. Briefly: Ultrasound and CT imaging, mouse model of pulmonary nodules. It is filed as in vivo, C57 mice. To be noted: 200 mg/kg intravenous, 4 weeks after model establishment. Here is the method:
(§2) Fifty micrograms of SodA peptide ([…]) and 0.25 mL of incomplete Freund's adjuvant were mixed and subcutaneously injected into the backs of C57 mice. Two weeks later, 50 μg of SodA peptide and 6000 agarose 4B beads dissolved in 0.2 mL PBS were covalently coupled and injected into the tail vein of the same C57 mice to construct a mouse model of pulmonary nodules. Additionally, 3×10^6 A549-Luci cells were injected into the tail vein of nude mice to construct a mouse model of pulmonary metastatic tumors. Some mice underwent intravenous injection of the targeting peptide (200 mg/kg) to induce calcification; simultaneous ultrasound and CT scans of normal lung cancer, calcified lung cancer, and pulmonary nodules were performed at 4 weeks after model establishment.

Data set [4] concerns human non-small cell lung cancer cells (lines A549, H460, and H1299). Briefly: CCK8 assay, lung cancer cells. Format: cell-based. The arrangement: dose or concentration left out as unconfirmed. To be noted: 48 hours. Here is the method: CCK8 assays were performed to determine the killing effect of targeting peptide-induced calcification of lung cancer cells.
Data set [5] shares this test system. The data set is described as follows: Flow cytometry of cell surface-bound FITC-modified targeting peptide, lung cancer cells. To be noted: 100 μg/mL FITC-modified peptide, 30 min, Ca2+ up to 2.75 mM, phosphate up to 1.61 mM. Format: binding. Here is the method:
(§3) The free amino groups of aspartic acid residues in the targeting peptide were reacted with fluorescein isothiocyanate (FITC) in phosphate-buffered saline (PBS) solution for 12 hours, then dialyzed in dialysis bags for 5 days and lyophilized to obtain FITC-modified targeting peptide molecules.

For data set [6], the system named is A549-Luci cells. The data set is described as follows: Ultrasound and CT imaging of calcified lung cancer, mouse model of pulmonary metastatic tumors. To be noted: 200 mg/kg intravenous, 4 weeks after model establishment. It is filed as in vivo, nude mice. Here is the method: as §2
Data set [7] relates to Beas-2b human lung epithelial cells, and human umbilical vein endothelial cells (HUVECs). The data set is described as follows: Flow cytometry of cell surface-bound FITC-modified targeting peptide, normal cells. The following applies: 100 μg/mL FITC-modified peptide, 30 min. It is filed as binding. Here is the method: as §3
(A flow cytometer gives signals particle by particle.)

The conditions of data set [8]: systemic FA administration; cited from earlier work.

Entries after “also recorded” stand apart in the source; their conditions may differ.

Regarding E10TDSILRSYDWTY, in the data set with A549-Luci cells [1], the “growth (and metastasis) of A549 lung cancer cells in vivo” value (“growth (and metastasis)” for short) is given as “significantly inhibited the growth of A549 cells”.

As to E30TDSILRSYDWTY, in the data set on A549-Luci cells [1], the “growth (and metastasis)” value was “significantly inhibited the growth of A549 cells”.

In the case of E24 TDSILRSYDWTY [targeting peptide], the “toxic effects on normal lung epithelial cells” value in data set [2] is “without significant toxic effects on normal lung epithelial cells”. Moreover, in the data set on lung epithelial cells, the “calcification on the cell surface (EDX calcium and phosphorus)” value is “without significantly affecting normal lung epithelial cells; also recorded: less deposition of calcium and phosphorus elements”. Further, the “calcification on the cell surface (EDX calcium and phosphorus peaks)” value is recorded as “significantly increased calcification peaks” in data set [3] and “significantly increased” in data set [3] (listed as CiP). The “growth (and metastasis)” value is “effectively inhibited the growth and metastasis of lung cancer” in the data set on A549-Luci cells [1]; “significantly inhibited the growth of A549 cells” with A549-Luci cells [1] (listed as CiP targeting peptide). For the same compound, the “identification of pulmonary nodules by imaging” value in the data set with pulmonary nodules is “could not be clearly identified by imaging”. Besides, in data set [4], the “proliferative activity / killing effect” value was “selectively inhibited the proliferative activities of various lung cancer cells”. For the same compound, the “binding of targeting peptide to cell surface” value in [5] is recorded as “selectively bound to the surface of lung cancer cells”; in data set [7], “did not bind to normal epithelial cells; also recorded: weakly bound to normal cells”. Moreover, in the data set with A549-Luci cells [6], the “identification of calcified lung cancer on ultrasound” value was “evident as high-density calcified foci on ultrasound; also recorded: could be clearly identified on ultrasound”. For the same compound, the “visualisation of calcified lung cancer on CT” value in the data set on A549-Luci cells [6] is on record as “revealed a clear boundary on CT; also recorded: could be visualized on CT”.

Consider E6TDSILRSYDWTY, for which the “growth (and metastasis)” value in the data set with A549-Luci cells [1] is “significantly inhibited the growth of A549 cells”.

In the case of E16TDSILRSYDWTY, the “growth (and metastasis)” value with A549-Luci cells [1] is listed as “significantly inhibited the growth of A549 cells”.

Turning to `Nc1nc2ncc(CNc3ccc(C(=O)N[C@@H](CCC(=O)O)C(=O)O)cc3)nc2c(=O)[nH]1` [FA, folic acid], in data set [8], the body weight entry was “dramatically reduces body weight”, the survival time result was “severely decreases survival time” and the tumor growth result was “promotes tumor growth”.

(Values after patent US20240058371A1, “MOLECULE FOR INDUCING SPONTANEOUS CALCIFICATION OF TUMOR CELLS AND USE THEREOF” (ZHEJIANG UNIVERSITY, priority 2020, published 2024).)
